Source: BindingDB's records for doi:10.1110/ps.03533004 (University of Copenhagen, 2004)

Key:
[1] = target: T1, Dihydroorotate dehydrogenase (quinone), mitochondrial [30-395] (Rattus norvegicus, UniProt Q63707); assay: Enzyme Inhibition Assay; details: pH 8; 30 °C
T1 construct: 30-395

[2] = target: Dihydroorotate dehydrogenase (quinone), mitochondrial (Rattus norvegicus, UniProt Q63707); assay: Enzyme Inhibition Assay; details: pH 8; 30 °C
Sequence of Dihydroorotate dehydrogenase (quinone), mitochondrial (Q63707 whole entry): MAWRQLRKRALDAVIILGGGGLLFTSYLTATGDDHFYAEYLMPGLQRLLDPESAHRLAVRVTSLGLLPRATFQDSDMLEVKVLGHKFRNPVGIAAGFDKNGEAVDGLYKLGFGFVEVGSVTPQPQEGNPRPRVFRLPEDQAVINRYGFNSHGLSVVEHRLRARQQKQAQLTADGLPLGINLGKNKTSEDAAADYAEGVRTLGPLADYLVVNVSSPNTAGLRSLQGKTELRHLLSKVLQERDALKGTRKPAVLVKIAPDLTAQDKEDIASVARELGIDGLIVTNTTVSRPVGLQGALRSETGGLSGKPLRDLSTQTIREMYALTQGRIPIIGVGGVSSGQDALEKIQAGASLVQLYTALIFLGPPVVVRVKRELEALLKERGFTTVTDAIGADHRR

T1 sequence (Q63707 30-395): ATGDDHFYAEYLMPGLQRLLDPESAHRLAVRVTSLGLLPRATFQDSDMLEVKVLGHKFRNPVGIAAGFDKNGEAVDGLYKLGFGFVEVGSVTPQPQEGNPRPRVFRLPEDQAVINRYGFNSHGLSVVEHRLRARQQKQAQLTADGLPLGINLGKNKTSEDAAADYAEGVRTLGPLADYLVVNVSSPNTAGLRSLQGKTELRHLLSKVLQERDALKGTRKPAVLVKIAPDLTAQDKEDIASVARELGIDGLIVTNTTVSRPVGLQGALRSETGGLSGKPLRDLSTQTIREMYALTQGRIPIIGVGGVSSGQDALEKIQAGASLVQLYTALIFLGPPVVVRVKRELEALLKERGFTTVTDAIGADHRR

- IC50 [1]: 0.904 µM
- IC50 [2]: 0.698 µM
Structure (SMILES): O=C1C(=O)C(C2CCC(c3ccc(Cl)cc3)CC2)C(=O)c2ccccc21 (configuration not stated) [Mepron]
